Active and inactive are the calls of the source. No cut-off for these calls is given here.
species: Homo sapiens; assay: Binding affinity to NMDA

SMILES | Activity
N#Cc1cccc(C2=Nc3ccc(C#Cc4ccccc4)cc3NC(=O)C2)c1 | inactive

target: T1, Metabotropic glutamate receptor 2 (Rattus norvegicus, UniProt P31421); assay: Displacement of [3H]LY354740 from rat mGluR2 expressed in CHO cells; type: cell-based
T1 sequence (P31421 whole entry): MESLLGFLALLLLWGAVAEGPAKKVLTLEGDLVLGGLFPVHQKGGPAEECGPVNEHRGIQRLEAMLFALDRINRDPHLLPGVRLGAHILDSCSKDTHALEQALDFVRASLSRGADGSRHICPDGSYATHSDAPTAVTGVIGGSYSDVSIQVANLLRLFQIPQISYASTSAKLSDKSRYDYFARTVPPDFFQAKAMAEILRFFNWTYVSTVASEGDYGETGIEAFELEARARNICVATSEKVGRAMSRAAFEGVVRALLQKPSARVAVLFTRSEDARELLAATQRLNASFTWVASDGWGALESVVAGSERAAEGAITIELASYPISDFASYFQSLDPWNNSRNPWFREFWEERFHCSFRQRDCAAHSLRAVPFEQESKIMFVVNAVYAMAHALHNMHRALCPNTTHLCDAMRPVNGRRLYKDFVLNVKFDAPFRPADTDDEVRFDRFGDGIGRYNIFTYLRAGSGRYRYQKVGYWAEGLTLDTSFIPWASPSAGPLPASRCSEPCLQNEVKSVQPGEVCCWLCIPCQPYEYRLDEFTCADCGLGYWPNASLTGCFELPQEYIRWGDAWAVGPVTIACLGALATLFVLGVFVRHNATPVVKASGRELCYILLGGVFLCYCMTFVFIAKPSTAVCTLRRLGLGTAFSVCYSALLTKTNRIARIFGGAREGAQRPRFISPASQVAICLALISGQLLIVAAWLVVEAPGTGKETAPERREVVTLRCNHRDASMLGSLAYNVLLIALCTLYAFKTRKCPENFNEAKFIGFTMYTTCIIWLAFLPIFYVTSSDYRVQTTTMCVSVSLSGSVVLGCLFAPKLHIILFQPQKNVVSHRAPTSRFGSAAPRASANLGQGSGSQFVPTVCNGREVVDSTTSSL

SMILES | IC50 [nM]
N#Cc1cccc(C2=Nc3ccc(C#Cc4ccc(F)cc4)cc3NC(=O)C2)c1 | 34
N#Cc1cccc(C2=Nc3ccc(C#Cc4cccs4)cc3NC(=O)C2)c1 | 32
N#Cc1cccc(C2=Nc3cc(N4CCOCC4)c(C#Cc4ccccc4)cc3NC(=O)C2)c1 | 378
N#Cc1cccc(C2=Nc3cc(OCC(=O)O)c(C#Cc4ccccc4)cc3NC(=O)C2)c1 | 600
COc1cc2c(cc1C#Cc1ccccc1)NC(=O)CC(c1cccc(C#N)c1)=N2 | 92
N#Cc1cccc(C2=Nc3ccc(C#Cc4ccccn4)cc3NC(=O)C2)c1 | 870
N#Cc1cccc(C2=Nc3ccc(C#Cc4ccccc4F)cc3NC(=O)C2)c1 | 30
N#Cc1cccc(C2=Nc3cc(N4CC[S+]([O-])CC4)c(C#Cc4ccccc4)cc3NC(=O)C2)c1 | 446
N#Cc1cccc(C2=Nc3ccc(C#Cc4ccccc4)cc3NC(=O)C2)c1 | 34
O=C1CC(c2cccc(C(=O)N3CCOCC3)c2)=Nc2ccc(C#Cc3ccccc3)cc2N1 | 360
CN1CCN(C(=O)c2cccc(C3=Nc4ccc(C#Cc5ccccc5)cc4NC(=O)C3)c2)CC1 | 1040
Cc1ccc(C#Cc2ccc3c(c2)NC(=O)CC(c2cccc(C#N)c2)=N3)cc1 | 64
O=C1CC(c2ccccc2)=Nc2ccc(C#Cc3ccccc3)cc2N1 | 26
COc1ccc(C#Cc2ccc3c(c2)NC(=O)CC(c2cccc(C#N)c2)=N3)cc1 | 68
CN1CCN(c2cc3c(cc2C#Cc2ccccc2)NC(=O)CC(c2cccc(C#N)c2)=N3)CC1 | 278
O=C1CC(c2cccc(I)c2)=Nc2ccc(C#Cc3ccccc3)cc2N1 | 154
CC(C)(O)C#Cc1ccc2c(c1)NC(=O)CC(c1cccc(C#N)c1)=N2 | 26000
C=C(C)C#Cc1ccc2c(c1)NC(=O)CC(c1cccc(C#N)c1)=N2 | 400
N#Cc1cccc(C2=Nc3cc(N4CCSCC4)c(C#Cc4ccccc4)cc3NC(=O)C2)c1 | 40

SMILES | IC50 [nM]
Cc1ccc2c(c1)NC(=O)CC(c1cccc(C#N)c1)=N2 | 2900
COc1cccc(C2=Nc3ccc(C)cc3NC(=O)C2)c1 | 6580
COC1CCN(c2cc3c(cc2C#Cc2ccccc2)NC(=O)CC(c2cccc(C#N)c2)=N3)CC1 | 82
Cc1ccc2c(c1)NC(=O)CC(c1cccc(Cl)c1)=N2 | 2820
N#Cc1cccc(C2=Nc3cc(N4CCS(=O)(=O)CC4)c(C#Cc4ccccc4)cc3NC(=O)C2)c1 | 160
COc1cccc(C2=Nc3ccc(C#Cc4ccccc4)cc3NC(=O)C2)c1 | 962
NC(=O)c1cccc(C2=Nc3ccc(C#Cc4ccccc4)cc3NC(=O)C2)c1 | 358
N#Cc1cccc(C2=Nc3ccc(C#Cc4ccccc4Cl)cc3NC(=O)C2)c1 | 76
O=C1CC(c2cccc(C(F)(F)F)c2)=Nc2ccc(C#Cc3ccccc3)cc2N1 | 268
CN(C)c1cc2c(cc1C#Cc1ccccc1)NC(=O)CC(c1cccc(C#N)c1)=N2 | 60
O=C1CC(c2cccc(Cl)c2)=Nc2ccc(C#Cc3ccccc3)cc2N1 | 80
N#CCOc1cc2c(cc1C#Cc1ccccc1)NC(=O)CC(c1cccc(C#N)c1)=N2 | 18
N#Cc1cccc(C2=Nc3ccc(C#Cc4ccc(F)cc4F)cc3NC(=O)C2)c1 | 480
CC(C)(C)NC(=O)COc1cc2c(cc1C#Cc1ccccc1)NC(=O)CC(c1cccc(C#N)c1)=N2 | 26
N#Cc1cccc(C2=Nc3cc(OCC(N)=O)c(C#Cc4ccccc4)cc3NC(=O)C2)c1 | 2400
N#Cc1cccc(C2=Nc3ccc(C#Cc4nccs4)cc3NC(=O)C2)c1 | 300
COCCOc1cc2c(cc1C#Cc1ccccc1)NC(=O)CC(c1cccc(C#N)c1)=N2 | 28
Cc1ccc2c(c1)NC(=O)CC(c1cccc(C(F)(F)F)c1)=N2 | 1530

target: T1, Metabotropic glutamate receptor 2; assay: Antagonist activity at rat mGlu2 expressed in CHO cells assessed as inhibition of (1S,3R)-ACPD-stimulated GTPgammaS binding; type: functional, cell-based

SMILES | IC50 [nM]
COc1ccc(C2C(C(=O)OCCN(C)C)=C(C)N=C3SC(c4c(Cl)cccc4Cl)=CN32)cc1 (configuration not stated) | 30000
CC(C)O/C(=C\n1cncn1)c1ccc(Cl)cc1Cl | 6000

target: Metabotropic glutamate receptor 1 (Rattus norvegicus) (UniProt P23385); assay: Inhibition of glutamate-stimulated rat mGlu1a by calcium mobilization assay at 30 uM; type: functional
Sequence (P23385 19-1199 limits assumed): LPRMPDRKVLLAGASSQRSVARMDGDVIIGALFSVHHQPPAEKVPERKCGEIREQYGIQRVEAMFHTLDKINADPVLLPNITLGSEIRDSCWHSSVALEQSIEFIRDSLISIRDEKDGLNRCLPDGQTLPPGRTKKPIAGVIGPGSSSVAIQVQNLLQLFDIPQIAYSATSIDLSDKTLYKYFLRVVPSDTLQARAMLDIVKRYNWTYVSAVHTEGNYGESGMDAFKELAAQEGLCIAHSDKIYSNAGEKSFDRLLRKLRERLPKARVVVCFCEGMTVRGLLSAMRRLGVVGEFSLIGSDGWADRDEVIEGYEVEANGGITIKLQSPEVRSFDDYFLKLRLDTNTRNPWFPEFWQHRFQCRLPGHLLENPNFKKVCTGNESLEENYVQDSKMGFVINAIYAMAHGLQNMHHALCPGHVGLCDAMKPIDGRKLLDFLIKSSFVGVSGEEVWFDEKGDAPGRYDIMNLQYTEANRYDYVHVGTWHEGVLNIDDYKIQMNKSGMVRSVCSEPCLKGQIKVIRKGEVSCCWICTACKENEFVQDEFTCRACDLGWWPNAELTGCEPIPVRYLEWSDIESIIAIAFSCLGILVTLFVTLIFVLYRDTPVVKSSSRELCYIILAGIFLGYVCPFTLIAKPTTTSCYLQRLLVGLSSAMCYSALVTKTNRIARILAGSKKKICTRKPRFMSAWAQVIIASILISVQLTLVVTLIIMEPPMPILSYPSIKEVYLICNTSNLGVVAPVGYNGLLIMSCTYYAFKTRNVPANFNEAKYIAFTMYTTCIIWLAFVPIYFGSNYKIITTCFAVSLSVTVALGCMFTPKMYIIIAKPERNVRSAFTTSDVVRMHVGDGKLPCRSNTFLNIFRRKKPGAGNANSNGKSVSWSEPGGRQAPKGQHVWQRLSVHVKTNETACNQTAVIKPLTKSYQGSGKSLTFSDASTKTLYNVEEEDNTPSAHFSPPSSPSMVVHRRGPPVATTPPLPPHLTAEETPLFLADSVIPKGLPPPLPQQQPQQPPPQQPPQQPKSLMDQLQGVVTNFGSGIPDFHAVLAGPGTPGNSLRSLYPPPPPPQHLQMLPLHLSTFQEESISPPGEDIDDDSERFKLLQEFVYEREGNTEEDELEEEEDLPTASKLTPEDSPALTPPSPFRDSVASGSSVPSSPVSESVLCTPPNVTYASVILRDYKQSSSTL

SMILES | Activity
N#Cc1cccc(C2=Nc3ccc(C#Cc4ccccc4)cc3NC(=O)C2)c1 | inactive

target: Metabotropic glutamate receptor 5 (Rattus norvegicus) (UniProt P31424); assay: Inhibition of glutamate-stimulated rat mGlu5a by calcium mobilization assay at 30 uM; type: functional
Sequence (P31424 21-1203 limits assumed): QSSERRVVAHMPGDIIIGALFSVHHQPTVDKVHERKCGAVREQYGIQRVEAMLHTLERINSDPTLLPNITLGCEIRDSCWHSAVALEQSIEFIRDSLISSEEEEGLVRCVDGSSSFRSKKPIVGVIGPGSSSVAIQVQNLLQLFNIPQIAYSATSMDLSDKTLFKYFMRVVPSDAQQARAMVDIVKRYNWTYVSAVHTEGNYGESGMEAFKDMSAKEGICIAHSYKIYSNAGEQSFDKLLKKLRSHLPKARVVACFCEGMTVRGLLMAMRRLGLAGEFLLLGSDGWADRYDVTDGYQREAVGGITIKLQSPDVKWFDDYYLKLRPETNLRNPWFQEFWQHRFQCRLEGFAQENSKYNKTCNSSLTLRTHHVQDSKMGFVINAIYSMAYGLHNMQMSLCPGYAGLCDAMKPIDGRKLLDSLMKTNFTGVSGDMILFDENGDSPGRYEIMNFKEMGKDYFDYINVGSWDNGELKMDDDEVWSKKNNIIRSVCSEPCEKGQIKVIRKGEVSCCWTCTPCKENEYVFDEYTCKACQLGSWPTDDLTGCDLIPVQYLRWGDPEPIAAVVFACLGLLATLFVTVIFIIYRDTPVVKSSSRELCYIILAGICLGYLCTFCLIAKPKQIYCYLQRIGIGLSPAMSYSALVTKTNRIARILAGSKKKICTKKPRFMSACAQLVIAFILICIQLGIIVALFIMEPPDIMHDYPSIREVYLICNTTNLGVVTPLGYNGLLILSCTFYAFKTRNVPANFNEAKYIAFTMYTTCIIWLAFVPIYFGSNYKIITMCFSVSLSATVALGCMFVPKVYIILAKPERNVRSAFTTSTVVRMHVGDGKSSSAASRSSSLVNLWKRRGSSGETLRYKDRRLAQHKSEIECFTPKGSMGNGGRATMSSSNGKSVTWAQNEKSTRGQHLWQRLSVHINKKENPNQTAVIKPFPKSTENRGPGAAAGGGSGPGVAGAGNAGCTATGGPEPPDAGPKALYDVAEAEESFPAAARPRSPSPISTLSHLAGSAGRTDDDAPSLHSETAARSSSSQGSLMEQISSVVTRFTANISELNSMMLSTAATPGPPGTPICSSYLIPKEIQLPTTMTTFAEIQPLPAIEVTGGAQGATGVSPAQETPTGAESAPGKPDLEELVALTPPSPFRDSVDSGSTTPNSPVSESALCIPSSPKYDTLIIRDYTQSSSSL

SMILES | Activity
N#Cc1cccc(C2=Nc3ccc(C#Cc4ccccc4)cc3NC(=O)C2)c1 | inactive

species: Rattus norvegicus; assay: Displacement of [3H]L-AP4 from mGlu8a receptor

SMILES | Activity
N#Cc1cccc(C2=Nc3ccc(C#Cc4ccccc4)cc3NC(=O)C2)c1 | inactive

species: Homo sapiens; assay: Binding affinity to GABAA

SMILES | Activity
N#Cc1cccc(C2=Nc3ccc(C#Cc4ccccc4)cc3NC(=O)C2)c1 | inactive

target: Metabotropic glutamate receptor 2 (Rattus norvegicus) (UniProt P31421); assay: Antagonist activity at rat mGluR2 expressed in CHO cells co expressing human Kir3.1 assessed as glutamate-induced inward potassium current; type: functional, cell-based
Sequence (P31421 19-872 limits assumed): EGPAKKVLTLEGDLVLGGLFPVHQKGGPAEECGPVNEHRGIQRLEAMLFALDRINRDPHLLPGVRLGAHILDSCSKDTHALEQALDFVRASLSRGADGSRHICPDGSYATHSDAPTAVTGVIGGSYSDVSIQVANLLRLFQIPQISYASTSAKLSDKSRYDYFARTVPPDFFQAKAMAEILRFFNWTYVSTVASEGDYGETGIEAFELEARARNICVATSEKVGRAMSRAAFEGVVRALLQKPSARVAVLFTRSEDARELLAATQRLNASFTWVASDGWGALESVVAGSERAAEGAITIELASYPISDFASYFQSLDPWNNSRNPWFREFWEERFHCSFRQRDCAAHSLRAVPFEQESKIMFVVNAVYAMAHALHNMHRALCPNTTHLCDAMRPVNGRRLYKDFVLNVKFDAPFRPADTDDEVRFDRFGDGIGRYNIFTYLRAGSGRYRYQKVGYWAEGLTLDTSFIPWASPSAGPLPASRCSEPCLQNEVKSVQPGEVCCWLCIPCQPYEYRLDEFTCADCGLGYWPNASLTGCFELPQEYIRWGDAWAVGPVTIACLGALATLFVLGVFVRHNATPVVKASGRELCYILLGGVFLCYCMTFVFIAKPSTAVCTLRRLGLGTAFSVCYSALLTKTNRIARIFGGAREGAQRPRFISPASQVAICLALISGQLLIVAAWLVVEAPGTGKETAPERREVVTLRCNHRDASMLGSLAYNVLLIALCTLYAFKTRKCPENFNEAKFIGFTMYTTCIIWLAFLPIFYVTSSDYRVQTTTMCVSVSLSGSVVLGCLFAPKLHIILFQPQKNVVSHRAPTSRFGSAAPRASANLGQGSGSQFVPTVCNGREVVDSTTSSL

SMILES | Activity
N#Cc1cccc(C2=Nc3ccc(C#Cc4ccccc4)cc3NC(=O)C2)c1 | Active

target: Metabotropic glutamate receptor 3 (Rattus norvegicus) (UniProt P31422); assay: Antagonist activity at rat mGluR3 expressed in CHO cells co expressing human Kir3.2c assessed as glutamate-induced inward potassium current; type: functional, cell-based
Sequence (P31422 23-879 limits assumed): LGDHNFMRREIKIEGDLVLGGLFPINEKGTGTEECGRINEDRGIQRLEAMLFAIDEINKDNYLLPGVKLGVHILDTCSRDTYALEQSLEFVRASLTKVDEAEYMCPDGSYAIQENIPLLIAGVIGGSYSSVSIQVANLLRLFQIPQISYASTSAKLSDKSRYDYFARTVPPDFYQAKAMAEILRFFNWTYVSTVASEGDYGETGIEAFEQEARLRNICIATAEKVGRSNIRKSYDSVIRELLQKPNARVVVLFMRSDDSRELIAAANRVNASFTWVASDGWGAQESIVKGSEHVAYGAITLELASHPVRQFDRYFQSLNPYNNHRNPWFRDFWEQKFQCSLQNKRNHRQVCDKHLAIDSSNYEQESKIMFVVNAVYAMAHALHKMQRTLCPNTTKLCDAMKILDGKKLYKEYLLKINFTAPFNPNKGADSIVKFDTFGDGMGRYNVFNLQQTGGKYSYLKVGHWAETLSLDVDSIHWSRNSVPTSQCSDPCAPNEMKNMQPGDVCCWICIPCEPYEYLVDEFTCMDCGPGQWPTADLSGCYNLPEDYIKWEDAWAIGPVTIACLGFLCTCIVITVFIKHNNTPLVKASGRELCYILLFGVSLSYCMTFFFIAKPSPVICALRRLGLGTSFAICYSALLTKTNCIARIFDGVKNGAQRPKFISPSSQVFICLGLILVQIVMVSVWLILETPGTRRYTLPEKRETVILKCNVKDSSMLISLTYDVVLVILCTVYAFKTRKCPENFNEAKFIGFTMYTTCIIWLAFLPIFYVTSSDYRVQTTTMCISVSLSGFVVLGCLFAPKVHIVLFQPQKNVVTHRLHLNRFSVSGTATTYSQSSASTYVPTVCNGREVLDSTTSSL

SMILES | Activity
N#Cc1cccc(C2=Nc3ccc(C#Cc4ccccc4)cc3NC(=O)C2)c1 | Active

target: Metabotropic glutamate receptor 2 (Rattus norvegicus) (UniProt P31421); assay: Displacement of [3H]LY354740 from rat mGluR2 expressed in CHO cells assessed as residual binding; type: cell-based

SMILES | Activity [%]
N#Cc1cccc(C2=Nc3ccc(C#Cc4ccccc4)cc3NC(=O)C2)c1 | 25

From ChEMBL document CHEMBL1138280, “Synthesis and characterization of 8-ethynyl-1,3-dihydro-benzo[b][1,4]diazepin-2-one derivatives: new potent non-competitive metabotropic glutamate receptor 2/3 antagonists. Part 1” (Bioorg Med Chem Lett, 2007)
